Assays:
[1] = test system: vasodilation of the skin (skin temperature); assay: Skin temperature probe test of skin vasodilation; format: in vivo, human; settings: single ingredient given alone
Text: A person ingested the preparation designed to increase nitric oxide and acetylcholine in order to induce vasodilation (example 3). The preparation included choline, arginine, hawthorn berry, cocoa, dextrose, and cinnamon. A temperature probe designed to assess skin temperature measured vasodilation of the skin. The baseline skin temperature was 99 degrees Fahrenheit. Within fifteen minutes after ingestion of the capsules, the skin temperature increased to 101.3 degrees Fahrenheit and remained elevated for three hours. The next day arginine alone was given with no effect on skin temperature. The following day, choline alone was given with no effect on skin temperature. The preparation was given for two weeks when skin temperature was again measured. The skin temperature increased by two degrees and remained elevated for 60 minutes (FIG. 3).

[2] = test system: heart rate; assay: Continuous heart rate recording, one individual, components on successive days; format: in vivo, human; settings: baseline as reference, time point not given (5, 10, 15, 30 minutes recorded), caffeine 150 mg, tyrosine 50 mg, histadine 100 mg, Ginkgo Biloba 120 mg, choline 120 mg
Method: To test the components of example 14, a series of experiments were performed using a continuous heart rate recorder. In an individual on successive days, heart rate was recoded as RR intervals in msec. The individual sat quietly for 30 minutes as baseline. Then on day 1 the combination of caffeine, 150 mg, with tyrosine, 50 mg, histadine, 100 mg, Ginkgo Biloba, 120 mg, and choline 120 mg was given. […] A percent change was calculated with the baseline as reference. On Day 2 caffeine alone was ingested using the same protocol. […] On day 5, ginkgo biloba was ingested.

[3] = test system: heart rate; assay: Continuous heart rate monitoring in 6 individuals, sustained effect; format: in vivo, human; settings: baseline 0.0
Method: In 6 individuals, heart rate experiments were performed to show the sustained effect of the combination of the five elements outlined in this invention. […] They sat quietly for […] to establish a baseline. They then on subsequent days ingested combination of the 5 elements described in this invention. The results are depicted in table 2 and FIG. 5. Where C is caffeine 150 mg, T is tyrosine 50 mg, CH is choline 200 mg, and GB is ginkgo biloba 120 mg.

[4] = test system: appetite; heart rate and heart rate variability; assay: Shell's earlier studies of attenuation of precursor formulations; format: in vivo; settings: Shell's studies dating to 1987

Row | Compound | effect on skin temperature [1] | percent change in heart rate [2] [%] | other results
1 | N=C(N)NCCC[C@H](N)C(=O)O [arginine] | no effect |  | 
2 | C[N+](C)(C)CCO [Choline] | no effect | −4 | 
3 | Cn1c(=O)c2c(ncn2C)n(C)c1=O [Caffeine] |  | 3 | heart rate, 5 min ([3]; 5 min after ingestion): 3.0; heart rate, 15 min ([3]; 15 min after ingestion): 1.3; heart rate, 30 min ([3]; 30 min after ingestion): 0.0
4 | N[C@@H](Cc1ccc(O)cc1)C(=O)O [Tyrosine] |  | 1 | time until appetite suppression is lost [4]: approximately 7 days
5 | N[C@@H](Cc1c[nH]cn1)C(=O)O [Histadine] |  | 0.2 | 
